Active and inactive are the calls of the source. The rule behind the calls is not given here.
What was measured:
[1] = molecular target: T1, D(3) dopamine receptor (Homo sapiens, UniProt P35462); experiment: Agonist activity at human dopamine D3 receptor expressed in CHO cells after 90 mins by [35S]-GTPgamma S assay; assay type: cell-based
[2] = molecular target: D(3) dopamine receptor (Rattus norvegicus, UniProt P19020)
Description: Displacement of [125I]-7-OH-PIPAT from rat brain dopamine D3 receptor after 45 mins by microplate scintillation counting analysis

[3] = molecular target: T1, D(3) dopamine receptor; experiment: Antagonist activity at human dopamine D3 receptor expressed in CHO cells after 90 mins by [35S]-GTPgamma S assay; assay type: cell-based
[4] = molecular target: Voltage-gated inwardly rectifying potassium channel KCNH2 (Homo sapiens, UniProt Q12809); experiment: Displacement of [3H]-dofetilide from human ERG potassium channel by scintillation proximity assay
[5] = molecular target: Dopamine receptor D2 and D3 (Rattus norvegicus) (UniProt P19020+P61169); experiment: Selectivity ratio of Ki for rat brain dopamine D2 receptor to Ki for rat brain dopamine D3 receptor
[6] = molecular target: T2, Muscarinic acetylcholine receptor M1 (Homo sapiens, UniProt P11229); experiment: Antagonist activity at muscarinic M1 receptor (unknown origin)
T2 sequence (P11229 whole entry): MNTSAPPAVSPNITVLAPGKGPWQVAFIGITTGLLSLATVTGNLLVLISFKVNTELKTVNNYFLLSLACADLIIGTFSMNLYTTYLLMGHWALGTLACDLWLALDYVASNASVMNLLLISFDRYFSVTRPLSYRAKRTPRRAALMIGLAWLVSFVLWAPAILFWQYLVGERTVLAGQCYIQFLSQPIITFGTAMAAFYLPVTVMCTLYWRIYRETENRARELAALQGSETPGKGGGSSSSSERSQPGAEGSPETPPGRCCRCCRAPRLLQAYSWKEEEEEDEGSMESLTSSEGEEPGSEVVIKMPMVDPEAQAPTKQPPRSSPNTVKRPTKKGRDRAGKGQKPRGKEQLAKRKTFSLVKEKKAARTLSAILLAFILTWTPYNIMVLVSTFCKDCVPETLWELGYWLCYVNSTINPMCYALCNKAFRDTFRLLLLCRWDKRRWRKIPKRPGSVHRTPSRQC

[7] = molecular target: T3, D(4) dopamine receptor (Homo sapiens) (UniProt P21917); experiment: (§1) Binding affinity to dopamine D4 receptor (unknown origin)
T3 sequence (whole entry): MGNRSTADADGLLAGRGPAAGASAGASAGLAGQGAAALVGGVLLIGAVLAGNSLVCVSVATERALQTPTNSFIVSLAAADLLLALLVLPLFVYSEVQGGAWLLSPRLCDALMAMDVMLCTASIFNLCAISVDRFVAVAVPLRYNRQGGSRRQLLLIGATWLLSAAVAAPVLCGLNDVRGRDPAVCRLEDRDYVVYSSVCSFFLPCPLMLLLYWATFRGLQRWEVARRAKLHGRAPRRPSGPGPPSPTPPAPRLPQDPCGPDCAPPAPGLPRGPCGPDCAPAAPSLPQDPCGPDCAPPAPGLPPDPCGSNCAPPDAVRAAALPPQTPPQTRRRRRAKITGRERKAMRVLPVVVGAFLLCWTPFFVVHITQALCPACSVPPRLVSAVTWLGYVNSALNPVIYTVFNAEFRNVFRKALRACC

[8] = molecular target: D(1A) dopamine receptor (Homo sapiens, UniProt P21728); experiment: Binding affinity to dopamine D1 receptor (unknown origin)
[9] = molecular target: Muscarinic acetylcholine receptor M3 (Homo sapiens, UniProt P20309); experiment: Binding affinity to muscarinic M3 receptor (unknown origin)
[10] = Intrinsic clearance in human liver microsomes assessed per mg of protein; assay type: ADME; details: read-out: CLH
[11] = Bioavailability in portal vein-cannulated rat; assay type: ADME, organism-based; details: in vivo
[12] = molecular target: T4, D(4) dopamine receptor (Homo sapiens, UniProt P21917); experiment: as §1
T4 sequence (P21917 whole entry): T3 sequence (whole entry)

[13] = Volume of distribution at steady state in portal vein-cannulated rat; assay type: ADME, organism-based; details: in vivo, read-out: Vdss
[14] = molecular target: T5, Cytochrome P450 3A4 (Homo sapiens, UniProt P08684); experiment: Inhibition of human CYP3A4 expressed in bactosome using DBOMF as substrate; assay type: ADME
[15] = molecular target: Cytochrome P450 2C19 (Homo sapiens, UniProt P33261); experiment: Inhibition of human CYP2C19 expressed in bactosome; assay type: ADME
[16] = Fraction unbound in portal vein-cannulated rat brain; assay type: ADME, tissue-based
[17] = molecular target: Cytochrome P450 2C9 (Homo sapiens, UniProt P11712); experiment: Inhibition of human CYP2C9 expressed in bactosome; assay type: ADME
[18] = Fraction absorbed in portal vein-cannulated rat; assay type: ADME, organism-based; details: in vivo
[19] = Blood clearance in portal vein-cannulated rat; assay type: ADME, organism-based; details: whole blood
[20] = molecular target: T5, Cytochrome P450 3A4; experiment: Inhibition of human CYP3A4 expressed in bactosome using 7BQ as substrate; assay type: ADME
[21] = molecular target: T6, Cytochrome P450 1A2 (Homo sapiens, UniProt P05177); experiment: Inhibition of human CYP1A2 expressed in bactosome; assay type: ADME
T6 sequence (P05177 whole entry): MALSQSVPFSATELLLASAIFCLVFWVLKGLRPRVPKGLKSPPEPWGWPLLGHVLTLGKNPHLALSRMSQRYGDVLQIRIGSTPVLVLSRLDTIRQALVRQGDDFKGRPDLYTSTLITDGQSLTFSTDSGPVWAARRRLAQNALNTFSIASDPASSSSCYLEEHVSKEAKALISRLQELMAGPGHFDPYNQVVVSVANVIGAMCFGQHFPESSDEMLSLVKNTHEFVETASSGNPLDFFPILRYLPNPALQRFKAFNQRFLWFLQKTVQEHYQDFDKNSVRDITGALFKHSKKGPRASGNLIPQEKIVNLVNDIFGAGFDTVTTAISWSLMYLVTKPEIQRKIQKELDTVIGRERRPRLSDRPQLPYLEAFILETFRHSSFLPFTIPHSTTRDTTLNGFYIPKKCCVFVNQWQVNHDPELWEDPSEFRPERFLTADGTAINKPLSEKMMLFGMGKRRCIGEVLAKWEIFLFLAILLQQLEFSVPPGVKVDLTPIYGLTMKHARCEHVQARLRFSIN

[22] = Fraction unbound in portal vein-cannulated rat blood; assay type: ADME, tissue-based
[23] = Half life in portal vein-cannulated rat; assay type: ADME, organism-based; details: in vivo
[24] = molecular target: Cytochrome P450 2D6 (Homo sapiens, UniProt P10635); experiment: Inhibition of human CYP2D6 expressed in bactosome; assay type: ADME
[25] = Intrinsic clearance in rat liver microsomes assessed per mg of protein; assay type: ADME; details: read-out: CLH

Chain of Cytochrome P450 2C9 (P11712 whole entry): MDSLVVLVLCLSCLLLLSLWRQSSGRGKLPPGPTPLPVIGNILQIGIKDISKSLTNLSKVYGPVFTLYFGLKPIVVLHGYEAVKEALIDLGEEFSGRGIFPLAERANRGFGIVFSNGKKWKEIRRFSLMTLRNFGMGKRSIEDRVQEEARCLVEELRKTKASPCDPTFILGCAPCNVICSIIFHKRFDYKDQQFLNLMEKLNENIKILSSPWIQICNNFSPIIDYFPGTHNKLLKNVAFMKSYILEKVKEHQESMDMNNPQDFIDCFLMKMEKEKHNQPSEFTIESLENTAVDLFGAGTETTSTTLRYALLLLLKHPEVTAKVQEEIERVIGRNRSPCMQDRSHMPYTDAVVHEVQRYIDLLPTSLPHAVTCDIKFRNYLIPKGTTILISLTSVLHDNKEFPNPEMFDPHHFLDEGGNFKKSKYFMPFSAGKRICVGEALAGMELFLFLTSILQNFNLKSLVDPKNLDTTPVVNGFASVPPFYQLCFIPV
T5 sequence (P08684 whole entry): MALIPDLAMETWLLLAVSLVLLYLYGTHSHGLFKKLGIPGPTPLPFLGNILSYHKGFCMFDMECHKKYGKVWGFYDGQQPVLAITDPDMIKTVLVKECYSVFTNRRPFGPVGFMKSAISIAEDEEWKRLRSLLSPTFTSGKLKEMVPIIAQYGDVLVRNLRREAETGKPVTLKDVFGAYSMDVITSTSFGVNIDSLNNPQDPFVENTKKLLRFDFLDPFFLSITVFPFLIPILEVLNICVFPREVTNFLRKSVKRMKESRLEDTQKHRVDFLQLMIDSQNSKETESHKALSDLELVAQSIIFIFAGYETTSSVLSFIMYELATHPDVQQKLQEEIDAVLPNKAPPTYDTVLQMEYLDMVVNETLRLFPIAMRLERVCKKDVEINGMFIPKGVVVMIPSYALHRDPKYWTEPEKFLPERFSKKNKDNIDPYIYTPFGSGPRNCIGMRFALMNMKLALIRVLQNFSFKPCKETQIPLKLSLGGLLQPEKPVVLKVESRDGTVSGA
Chain of Voltage-gated inwardly rectifying potassium channel KCNH2 (Q12809 whole entry): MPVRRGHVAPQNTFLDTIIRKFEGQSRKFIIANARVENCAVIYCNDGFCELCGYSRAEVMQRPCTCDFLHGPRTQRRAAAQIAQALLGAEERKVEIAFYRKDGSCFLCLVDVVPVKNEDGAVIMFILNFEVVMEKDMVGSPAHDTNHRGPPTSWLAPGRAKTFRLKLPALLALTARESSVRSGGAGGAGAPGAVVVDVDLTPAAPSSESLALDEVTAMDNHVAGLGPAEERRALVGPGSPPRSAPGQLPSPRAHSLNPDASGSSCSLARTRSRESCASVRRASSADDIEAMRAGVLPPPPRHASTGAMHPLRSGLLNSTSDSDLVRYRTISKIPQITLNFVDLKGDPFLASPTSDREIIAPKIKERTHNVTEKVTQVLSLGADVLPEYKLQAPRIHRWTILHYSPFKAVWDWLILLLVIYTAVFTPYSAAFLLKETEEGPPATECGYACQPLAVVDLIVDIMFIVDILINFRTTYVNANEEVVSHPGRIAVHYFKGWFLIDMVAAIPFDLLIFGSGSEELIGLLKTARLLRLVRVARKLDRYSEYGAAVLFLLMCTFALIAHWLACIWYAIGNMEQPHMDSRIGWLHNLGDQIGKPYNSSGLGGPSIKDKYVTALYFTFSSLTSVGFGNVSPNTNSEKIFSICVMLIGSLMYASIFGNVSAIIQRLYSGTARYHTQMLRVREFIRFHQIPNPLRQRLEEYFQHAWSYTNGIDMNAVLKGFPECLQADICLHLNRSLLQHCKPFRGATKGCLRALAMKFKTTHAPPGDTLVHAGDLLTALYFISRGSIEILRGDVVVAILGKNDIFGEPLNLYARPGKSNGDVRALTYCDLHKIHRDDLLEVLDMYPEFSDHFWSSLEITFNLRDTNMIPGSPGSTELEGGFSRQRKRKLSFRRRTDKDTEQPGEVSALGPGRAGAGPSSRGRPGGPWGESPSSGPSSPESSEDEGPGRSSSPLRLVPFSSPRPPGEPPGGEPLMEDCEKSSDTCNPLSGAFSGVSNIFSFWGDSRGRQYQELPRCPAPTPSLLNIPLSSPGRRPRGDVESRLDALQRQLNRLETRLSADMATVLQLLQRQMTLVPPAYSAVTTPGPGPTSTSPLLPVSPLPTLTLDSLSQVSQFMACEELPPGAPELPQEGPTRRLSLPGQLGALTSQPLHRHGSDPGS
Chain of D(1A) dopamine receptor (P21728 whole entry): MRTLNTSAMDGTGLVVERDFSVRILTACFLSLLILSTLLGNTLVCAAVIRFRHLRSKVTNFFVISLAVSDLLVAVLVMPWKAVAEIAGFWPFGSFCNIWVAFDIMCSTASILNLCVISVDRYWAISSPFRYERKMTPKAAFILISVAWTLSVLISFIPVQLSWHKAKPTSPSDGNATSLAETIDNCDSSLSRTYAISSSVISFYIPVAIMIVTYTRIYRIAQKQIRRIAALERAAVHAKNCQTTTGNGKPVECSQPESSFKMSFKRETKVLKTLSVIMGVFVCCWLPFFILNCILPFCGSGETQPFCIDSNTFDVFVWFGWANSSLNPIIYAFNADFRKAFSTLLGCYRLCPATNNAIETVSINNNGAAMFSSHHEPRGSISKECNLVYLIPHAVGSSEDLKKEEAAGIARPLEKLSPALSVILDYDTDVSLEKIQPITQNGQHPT
T1 sequence (P35462 whole entry): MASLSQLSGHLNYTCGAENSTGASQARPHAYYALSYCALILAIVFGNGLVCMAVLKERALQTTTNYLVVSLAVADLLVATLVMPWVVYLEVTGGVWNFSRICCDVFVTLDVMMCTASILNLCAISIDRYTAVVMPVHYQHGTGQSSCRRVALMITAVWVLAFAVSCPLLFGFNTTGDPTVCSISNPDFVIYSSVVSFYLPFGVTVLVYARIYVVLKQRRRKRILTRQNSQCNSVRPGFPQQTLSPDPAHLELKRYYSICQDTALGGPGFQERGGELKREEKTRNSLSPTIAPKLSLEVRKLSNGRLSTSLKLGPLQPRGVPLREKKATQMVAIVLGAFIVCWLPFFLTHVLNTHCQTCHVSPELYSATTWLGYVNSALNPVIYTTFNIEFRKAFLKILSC
Chain of Cytochrome P450 2D6 (P10635 whole entry): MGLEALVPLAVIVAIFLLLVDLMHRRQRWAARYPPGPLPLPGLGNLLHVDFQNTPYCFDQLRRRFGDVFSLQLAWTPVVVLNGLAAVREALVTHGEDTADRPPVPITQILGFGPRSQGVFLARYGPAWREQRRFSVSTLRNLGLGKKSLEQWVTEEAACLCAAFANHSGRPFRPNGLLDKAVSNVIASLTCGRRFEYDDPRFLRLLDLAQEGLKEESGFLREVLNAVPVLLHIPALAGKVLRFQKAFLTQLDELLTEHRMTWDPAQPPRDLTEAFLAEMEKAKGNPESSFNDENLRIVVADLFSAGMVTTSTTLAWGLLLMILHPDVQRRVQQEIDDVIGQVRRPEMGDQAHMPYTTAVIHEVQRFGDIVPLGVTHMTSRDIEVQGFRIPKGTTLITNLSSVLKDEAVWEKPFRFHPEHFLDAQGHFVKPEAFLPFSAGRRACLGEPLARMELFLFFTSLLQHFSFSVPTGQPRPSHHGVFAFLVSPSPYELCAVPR
Chain of D(3) dopamine receptor (Rattus norvegicus, UniProt P19020) (P19020 whole entry): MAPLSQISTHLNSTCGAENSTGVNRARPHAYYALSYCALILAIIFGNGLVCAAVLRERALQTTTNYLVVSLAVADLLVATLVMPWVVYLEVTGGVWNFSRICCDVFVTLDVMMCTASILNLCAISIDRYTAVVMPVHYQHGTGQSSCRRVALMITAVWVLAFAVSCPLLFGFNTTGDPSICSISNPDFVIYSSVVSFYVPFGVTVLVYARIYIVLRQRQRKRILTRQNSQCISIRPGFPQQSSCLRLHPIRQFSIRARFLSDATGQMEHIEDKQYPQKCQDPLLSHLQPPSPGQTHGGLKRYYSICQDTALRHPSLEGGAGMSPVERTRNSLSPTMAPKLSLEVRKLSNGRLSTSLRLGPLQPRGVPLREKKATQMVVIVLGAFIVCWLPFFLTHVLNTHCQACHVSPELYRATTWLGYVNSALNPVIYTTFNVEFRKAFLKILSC
Chain of Cytochrome P450 2C19 (P33261 whole entry): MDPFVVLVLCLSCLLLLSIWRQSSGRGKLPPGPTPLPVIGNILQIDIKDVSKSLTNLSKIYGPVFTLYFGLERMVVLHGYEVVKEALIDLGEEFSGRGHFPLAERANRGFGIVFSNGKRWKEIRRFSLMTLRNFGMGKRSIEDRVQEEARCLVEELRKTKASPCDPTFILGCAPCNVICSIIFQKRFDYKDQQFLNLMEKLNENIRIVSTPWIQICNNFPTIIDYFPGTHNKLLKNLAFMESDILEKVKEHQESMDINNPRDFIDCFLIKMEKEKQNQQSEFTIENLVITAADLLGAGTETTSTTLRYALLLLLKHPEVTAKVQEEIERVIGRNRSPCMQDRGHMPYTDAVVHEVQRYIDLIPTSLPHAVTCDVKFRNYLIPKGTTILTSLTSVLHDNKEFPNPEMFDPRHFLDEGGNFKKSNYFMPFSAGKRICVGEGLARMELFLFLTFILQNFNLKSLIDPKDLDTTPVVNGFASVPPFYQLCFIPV
Chain of Dopamine receptor D2 and D3 (Rattus norvegicus) (P19020 whole entry, looked up): as the sequence (P19020 whole entry) above
Chain of Dopamine receptor D2 and D3 (Rattus norvegicus) (P61169 whole entry, looked up): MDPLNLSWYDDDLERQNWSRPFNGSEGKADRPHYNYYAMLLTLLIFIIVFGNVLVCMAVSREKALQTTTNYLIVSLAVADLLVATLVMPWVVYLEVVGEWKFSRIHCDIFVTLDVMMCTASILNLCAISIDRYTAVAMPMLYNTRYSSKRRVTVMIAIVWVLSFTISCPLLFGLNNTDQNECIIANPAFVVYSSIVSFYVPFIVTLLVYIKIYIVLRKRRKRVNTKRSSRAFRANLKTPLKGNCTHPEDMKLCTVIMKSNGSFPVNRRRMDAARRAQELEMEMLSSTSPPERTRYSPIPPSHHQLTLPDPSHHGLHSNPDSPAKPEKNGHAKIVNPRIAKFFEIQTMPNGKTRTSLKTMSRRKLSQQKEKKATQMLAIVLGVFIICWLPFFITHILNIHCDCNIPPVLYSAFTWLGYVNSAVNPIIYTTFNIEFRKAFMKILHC

Compound | Ki [1] | Ki [2] | Ki [3] | further results
Cn1c(SCCCN2CCOC(c3ccc(C(F)(F)F)cc3)C2)nnc1-c1ccncc1 (racemic) | > 10 µM | 0.1 µM |  | 
Cn1c(SCCCN2CCOC(c3ccc(C(F)(F)F)cc3)C2)nnc1-c1ccsc1 (racemic) | > 10 µM | 0.1 µM |  | 
Cc1ccc(C2CN(CCCSc3nnc(-c4ccc(-c5noc(C)n5)cc4)n3C)CCO2)cc1 (racemic) | > 10 µM | 0.0794 µM | 0.0158 µM | Ki [4]: 1 µM
Cn1c(SCCCN2CCOC(c3ccc(C(F)(F)F)cc3)C2)nnc1-c1ccc(C(N)=O)nc1 (racemic) | > 10 µM | 0.0316 µM | 0.0158 µM | Ki [4]: 2 µM
Cc1ncoc1-c1nnc(SCCCN2CCOC(c3ccc(C(F)(F)F)cc3)C2)n1C (racemic) |  | 0.126 µM |  | 
Cn1c(SCCCN2CCOC(c3ccc(C(F)(F)F)cc3)C2)nnc1-c1cccnc1 (racemic) | > 10 µM | 0.251 µM |  | 
Cn1c(SCCCN2CCOC(c3ccc(C(F)(F)F)cc3)C2)nnc1-c1ccc(C#N)cc1 (racemic) | > 10 µM | 0.1 µM |  | 
Cn1cccc1-c1nnc(SCCCN2CCOC(c3ccc(C(F)(F)F)cc3)C2)n1C (racemic) | > 10 µM | 0.126 µM |  | 
Cn1c(SCCCN2CCOC(c3ccc(C(F)(F)F)cc3)C2)nnc1-c1ccc(S(N)(=O)=O)cc1 (racemic) | > 10 µM | 0.126 µM |  | 
Cc1ncoc1-c1nnc(SCCCN2CCOC(c3ccc(Br)cc3)C2)n1C (racemic) | > 10 µM | 0.2 µM |  | 
Cn1c(SCCCN2CCOC(c3ccc(C(F)(F)F)cc3)C2)nnc1-c1nccs1 (racemic) | > 10 µM | 0.251 µM |  | 
Cn1c(SCCCN2CCOC(c3ccc(C(F)(F)F)cc3)C2)nnc1-c1ccc(-n2cnnc2)cc1 (racemic) | > 10 µM | 0.126 µM |  | 
Cn1c(SCCCN2CCOC(c3ccc(C(F)(F)F)cc3)C2)nnc1-c1ccc(C(N)=O)cc1 (racemic) [listing 1 of 2 here] | > 10 µM | 0.0316 µM | 0.02 µM | Ki [4]: 5.01 µM; Ki [6]: 1 µM
Cc1ncoc1-c1nnc(SCCCN2CCOC(c3ccc(F)cc3)C2)n1C (racemic) | > 10 µM | 0.398 µM |  | 
Cn1c(SCCCN2CCOC(c3ccc(C(F)(F)F)cc3)C2)nnc1-c1ccc(-c2ncco2)cc1 (racemic) [listing 2 of 2 here] |  |  |  | Ratio Ki [5]: 300
Cn1c(SCCCN2CCOC(c3ccc(C(F)(F)F)cc3)C2)nnc1-c1ccc(C(N)=O)cc1 (racemic) [listing 2 of 2 here] |  |  |  | Activity [7]: inactive; Activity [8]: inactive; Activity [9]: inactive
Cc1ncoc1-c1nnc(SCCCN2CCOC(c3ccc(F)cc3)C2)n1C (stereo in doubt; 7) |  |  |  | Activity [7]: inactive; Activity [8]: inactive; Activity [9]: inactive
Cc1ncoc1-c1nnc(SCCCN2CCOC(c3ccc(C(F)(F)F)cc3)C2)n1C (stereo in doubt; 9) |  | 0.0501 µM |  | microsomal CLint [10]: 40 µL/min/mg; bioavailability [11]: 58%; Ki [12]: > 100 µM; Vd [13]: 2.5 L/kg; IC50 [14]: > 6 µM; IC50 [15]: > 6 µM; Ki [4]: 3.16 µM; fraction unbound [16]: 0.071; IC50 [17]: > 6 µM; Ki [6]: 1 µM; Fa [18]: 63%; Ki [8]: > 100 µM; clearance [19]: 13.5 mL/min/kg; IC50 [20]: > 6 µM; IC50 [21]: > 6 µM; Ki [9]: 1 µM; fraction unbound [22]: 0.062; half-life [23]: 3.5 h; IC50 [24]: > 6 µM
Cn1c(SCCCN2CCOC(c3ccc(C(F)(F)F)cc3)C2)nnc1-c1ccc(C(N)=O)cc1 (stereo in doubt; 26) |  | 0.0158 µM | 0.00631 µM | microsomal CLint [10]: 63.2 µL/min/mg; IC50 [14]: > 30 µM; IC50 [15]: > 30 µM; Ki [4]: 6.31 µM; fraction unbound [16]: 0.03; IC50 [17]: > 30 µM; microsomal CLint [25]: 16.3 µL/min/mg; IC50 [20]: > 30 µM; IC50 [21]: > 30 µM; fraction unbound [22]: 0.045; IC50 [24]: > 30 µM
Cn1c(SCCCN2CCOC(c3ccc(C(F)(F)F)cc3)C2)nnc1-c1ccc(-c2ncco2)cc1 (stereo in doubt; 33) |  | 0.398 µM |  | 
Cn1c(SCCCN2CCOC(c3ccc(C(F)(F)F)cc3)C2)nnc1-c1ccc(-c2ncco2)cc1 (stereo in doubt; 34) |  | 0.00631 µM | 0.00316 µM | microsomal CLint [10]: 668 µL/min/mg; IC50 [14]: > 3 µM; IC50 [15]: > 3 µM; Ki [4]: 1.26 µM; fraction unbound [16]: 0.005; IC50 [17]: > 3 µM; microsomal CLint [25]: 114 µL/min/mg; IC50 [20]: > 3 µM; IC50 [21]: > 3 µM; fraction unbound [22]: 0.008; IC50 [24]: > 3 µM

More lines, main results first:

Ki [1] | Ki [2] | Ki [3] | Compound | further results
> 10 µM | 0.0794 µM | 0.0251 µM | Cc1ncoc1-c1nnc(SCCCCN2CCOC(c3ccc(C(F)(F)F)cc3)C2)n1C (racemic) | 
> 10 µM | 0.00501 µM | 0.01 µM | Cn1c(SCCCN2CCOC(c3ccc(C(F)(F)F)cc3)C2)nnc1-c1ccc(-c2ncco2)cc1 (racemic) [listing 1 of 2 here] | Ki [4]: 1 µM
> 10 µM | 0.316 µM |  | Cn1c(SCCCN2CCOC(c3ccc(C(F)(F)F)cc3)C2)nnc1-c1cccc(C(N)=O)c1 (racemic) | 
> 10 µM | 0.0398 µM | 0.02 µM | Cn1c(SCCCN2CCOC(c3ccc(C(F)(F)F)cc3)C2)nnc1C1CCCCC1 (racemic) | Ratio Ki [5]: 200
> 10 µM | 0.631 µM |  | Cn1cncc1-c1nnc(SCCCN2CCOC(c3ccc(C(F)(F)F)cc3)C2)n1C (racemic) | 
> 10 µM | 0.2 µM |  | Cc1ncoc1-c1nnc(SCCCN2CCOC(c3ccc(C(F)(F)F)cc3F)C2)n1C (racemic) | 
> 10 µM | 0.0631 µM | 0.0398 µM | Cn1c(SCCCN2CCOC(c3ccc(C(F)(F)F)cc3F)C2)nnc1-c1ccc(C(N)=O)cc1 (racemic) | 
> 10 µM | 0.158 µM |  | Cn1c(SCCCN2CCOC(c3ccc(C(F)(F)F)cc3)C2)nnc1-c1cnccn1 (racemic) | 
> 10 µM | 0.0251 µM | 0.01 µM | Cc1nc(-c2ccc(-c3nnc(SCCCN4CCOC(c5ccc(C(F)(F)F)cc5)C4)n3C)cc2)no1 (racemic) | 
> 10 µM | 0.0631 µM | 0.02 µM | CC(=O)c1ccc(-c2nnc(SCCCN3CCOC(c4ccc(C(F)(F)F)cc4)C3)n2C)cc1 (racemic) | 
> 10 µM | 0.0158 µM | 0.0126 µM | Cn1c(SCCCN2CCOC(c3ccc(C(F)(F)F)cc3)C2)nnc1-c1ccc(-c2nnco2)cc1 (racemic) | 
> 10 µM | 0.501 µM |  | Cc1ccc(C2CN(CCCSc3nnc(-c4ocnc4C)n3C)CCO2)cc1 (racemic) | 
> 10 µM | 0.1 µM |  | Cn1c(SCCCN2CCOC(c3ccc(C(F)(F)F)cc3)C2)nnc1-c1cncc(C(N)=O)c1 (racemic) | 
 |  | 0.0158 µM | Cc1ncoc1-c1nnc(SCCCCN2CCOC(c3ccc(C(F)(F)F)cc3)C2)n1C (stereo in doubt; 11) | Ki [4]: 2.51 µM; pKi [2]: 7.1

From ChEMBL document CHEMBL3763143, “Novel morpholine scaffolds as selective dopamine (DA) D3 receptor antagonists” (Bioorg Med Chem Lett, 2016)
